Here are results for eight molecules from EP0094245A2, “Dihydronaphthyridine derivatives, their preparation and compositions containing them” (SANKYO COMPANY LIMITED, priority 1982, dated 1983).

The test system of test [1] is Male Wistar rats. Put plainly: Pain test for analgesic activity (modified Randall-Selitto, Brewers' yeast inflamed paw). It counts as in vivo. Particulars: po; number of effective animals / total number of animals in group; 50 mg/kg orally; pain threshold 1 and 2 hours after administration; effective = at least twice mean pain threshold of controls. As for the experimental part: Pain test for analgesic activity
This test was conducted according to a modification of the method reported by L.O. Randall and J.J. Selitto in Arch. Int. Pharmacodyn., 11, 409 (1959), proposed by Winter and Flatake (1957).
Male Wistar rats of 4 weeks of age and weighing 60-90 g were injected with 0.1 ml of a 20% by weight suspension of Brewers' yeast in the right hind paw. […] Each of these was given orally a test compound as an aqueous tragacanth suspension at a dose of 50 mg/kg. 1 and 2 hours after administration of the test compound, the pain threshold was determined by observing pain responses (such as struggling or squeaking) when the inflamed or normal paw was subjected to pressure by a machine (Ugo-Basile). […] The results are reported as the number of effective animals as a proportion of the total number of animals in each group.

For test [2], the system named is Male Wistar rats. Put plainly: Carrageenin oedema test for anti-inflammatory activity. The test is classed as in vivo. To be noted: Rattus norvegicus, po, inhibitory rate, 100 mg/kg per os, paw volume 3 hours after carrageenin injection. As for the experimental part: Details of certain of the pharmacological tests are as follows: • Carrageenin oedema test for anti-inflammatory activity
Male Wistar rats weighing 120-150 g were fasted overnight and then received a test compound per os as an aqueous tragacanth suspension. 30 minutes later, inflammation was induced by the subcutaneous injection of 0.05 ml of a 1% carrageenin suspension into the plantar tissue of a hind paw of each rat [Winter et al., Proc. Soc. Exp. Biol. Med., 111, 544 (1962)]. The anti-oedema activity was measured volumetrically, by assessing the response, as calculated from the following equation: [formula] where Vo and V represent, respectively, the paw volume immediately before and 3 hours after the carrageenin injection. The test compounds were administered at a dose of 100 mg/kg and the results are reported in the following Table as the inhibitory rate, that is the percentage inhibition of the […].
Background: The carrageenan paw model is a standard test of acute inflammation.

`COc1ccc2c(n1)C(C)=CC(C)(C)N2` [Compound No. 1, 6-methoxy-2,2,4-trimethyl-1,2-dihydro-1,5-naphthyridine] had a responders at 50 mg/kg in the test with Male Wistar rats [1] of 60%. In the test on Male Wistar rats [2], this molecule displayed an inhibition in vivo at 100 mg/kg of 62.6%.
In turn, `CCOc1ccc2c(n1)C(C)=CC(C)(C)N2` [Compound No. 2, 6-ethoxy-2,2,4-trimethyl-1,2-dihydro-1,5-naphthyridine] gave a responders at 50 mg/kg in the test with Male Wistar rats [1] of 20%. The inhibition in vivo at 100 mg/kg in the test on Male Wistar rats [2] stood at 58.2%.
`CCCCOc1ccc2c(n1)C(C)=CC(C)(C)N2` [Compound No. 4, 6-butoxy-2,2,4-trimethyl-1,2-dihydro-1,5-naphthyridine] showed a responders at 50 mg/kg in the test on Male Wistar rats [1] of 60%. The molecule further returned an inhibition in vivo at 100 mg/kg with Male Wistar rats [2] of 65.4%.
`CC1=CC(C)(C)Nc2ccc(Oc3ccccc3)nc21` [Compound No. 5, 2,2,4-trimethyl-b-phenoxy-1,2-dihydro-1,5-naphthyridine]: the responders at 50 mg/kg in the test on Male Wistar rats [1] was 60%. In the test with Male Wistar rats [2], this molecule displayed an inhibition in vivo at 100 mg/kg of 53.6%.
For `CC1=CC(C)(C)Nc2ccc(Cl)nc21` [Compound No. 13, 6-chloro-2,2,4-trimethyl-1,2-dihydro-1,5-naphthyridine] the same measures were 60% and 56.6%.
For `COc1ccc2c(n1)C(C)=CC(C)(C)N2C` [Compound No. 25, 6-methoxy-1,2,2,4-tetramethyl-1,2-dihydro-1,5-naphthyridine] the same measures were 40% and 54.8%.
In the test on Male Wistar rats [1], `COc1ccc2c(n1)C(C)=CC(C)(C)N2C(C)=O` [Compound No. 27, 1-acetyl-6-methoxy-2,2,4-trimethyl-1,2-dihydro-1,5-naphthyridine] had a responders at 50 mg/kg of 20%. Also, the inhibition in vivo at 100 mg/kg in the test with Male Wistar rats [2] turned out to be 53.3%.
For `CC1=CC(C)(C)Nc2ccc(Oc3cccnc3)nc21` [compound 18, 2,2,4-trimethyl-6-(3-pyridyloxy)-1,2-dihydro-1,5-naphthyridine] the same measures were 80% and 76%.

By inhibition in vivo is commonly meant the percentage by which the read-out fell short of the control. A high value points to strong suppression.
